According to patent publication US5455234A, “Inhibition of hair growth” (priority 1994, dated 1995):

Tests used:
[1] = system: flank organs of Golden Syrian hamsters (androgen-stimulated hair growth); assay: Golden Syrian hamster assay (flank organ hair mass after topical application); assay type: in vivo
Excerpt: Male intact Golden Syrian hamsters are considered acceptable models for human beard hair growth in that they display oval shaped flank organs, one on each side, each about 8 mm. in major diameter, which grow thick black and coarse hair similar to human beard hair. These organs produce hair in response to androgens in the hamster. To evaluate the effectiveness of a composition including an inhibitor, the flank organs of each of a group of hamsters are depilated by applying a thioglycolate based chemical depilatory (Surgex). To one organ of each animal 25 μl. of vehicle alone once a day is applied, while to the other organ of each animal an equal amount of vehicle containing an inhibitor of a cysteine synthetic pathway enzyme is applied. After thirteen applications (one application per day for five days a week), the flank organs are shaved and the amount of recovered hair (hair mass) from each is weighed. Percent-reduction of hair growth is calculated by subtracting the hair mass (mg) value of the test compound treated side from the hair mass value of the vehicle treated side; the delta value obtained is then divided by the hair mass value of the vehicle treated side, and the resultant number is multiplied by 100.
The above-described assay will be referred to herein as the "Golden Syrian hamster" assay.

[2] = system: cysteine synthetic pathway intermediates in flank organ hair follicles; assay: Amino acid analysis of hamster flank organ hair follicles (Pico-Tag); assay type: in vivo; settings: hair follicles of treated flank organs, vehicle A
Description: Hair follicles were isolated from the flank organs which were treated with either an inhibitor of a cysteine pathway enzyme or the carrier without the inhibitor (the control). L-Cystathiorine, homocysteine, and S-adenosyl homocysteine, which are involved in a pathway leading to cysteine synthesis, were measured by an amino acid analysis method. The amino analysis of hamster flank organ hair follicles was carried out using a commercially available system (Pico-Tag; Waters Associates, Inc., Milford, Mass.). Hair follicle amino acids were extracted with 0.1N HCL, an derivatized with phenylisothiocyanate to yield the phenylthiohydantion derivatives of the respective amino acids, which were then separated by C-18 reverse phase chromatography, and quantitated by in-line UV spectrophotometry.
More specifically, 250-500 μl of 0.1N HCL was added to each flank organ hair follicle sample, followed by treatment with a sonicator device to obtain cell extracts. The cell extracts were centrifuged at 12,000×gfor 5 min, and the recovered supernatant was filtered through 0.45μ filter. The filtrate was vacuum dried under nitrogen using the Pico-Tag work station. Samples were then derivatized with phenylisothiocyanate reagent by the procedure described in the Waters Associates Pico-Tag manual. An aliquot of the derivatized sample was injected on a C-18 reverse phase column (Pico-Tag column) and the elution was carried out with a gradient buffer system. This procedure separated the amino acids L-cystathionine, homocysteine, and S-adenosyl homocysteine from other amino acids present in hair follicle extracts. The amino acid concentrations were determined at UV wavelength 254 nm using an in-line spectrophotometer and a dedicated HPLC control and data analysis system (Waters Associates).

[3] = topical, dose 20%, vehicle A, pH 8.5, 13 applications
[4] = Table 2, topical, dose 0.25%, vehicle A, pH 4.5
[5] = Table 2, topical, dose 0.50%, vehicle A, pH 5.0
[6] = Table 2, topical, dose 1.00%, vehicle A, pH 5.0
[7] = Table 2, topical, dose 5.00%, vehicle A, pH 5.0
[8] = topical, dose 5%, vehicle A, pH 4.5, 13 applications
[9] = topical, dose 15%, vehicle B, pH 9.5, 13 applications
[10] = topical, dose 20%, vehicle A, pH 7.0, 13 applications
[11] = topical, dose 15%, vehicle A, pH 8.0, 13 applications
[12] = topical, dose 10%, vehicle A, pH 4.5, 13 applications
[13] = topical, dose 20%, vehicle A, pH 7.5, 13 applications

With NNC(=O)c1ccncc1 [Isonicotinic acid hydrazide] the “Hair Mass Treated (mg mean ± SEM)” value [1, 3] was 1.344 ± 0.18 mg and the “Percent Inhibition (mean ± SEM)” value [1, 3] was 35.13 ± 7.98%.
In the case of Nc1nccc2c1ncn2[C@@H]1C=C(CO)[C@@H](O)[C@H]1O [3-Deazaneplanocin], the “Hair Mass Treated” value [1, 4] is reported as 1.889 ± 0.15 mg, the “Percent Inhibition (mean ± SEM)” value [1, 4] is reported as 14.82 ± 5.45% and the “Hair Mass Treated” value [1, 5] is reported as 1.487 ± 0.16 mg. The “Percent Inhibition (mean ± SEM)” value [1, 5] was 35.49 ± 4.62%, the “Hair Mass Treated” value [1, 6] was 1.113 ± 0.08 mg and the “Percent Inhibition (mean ± SEM)” value [1, 6] was 50.94 ± 4.77%. The “Hair Mass Treated” value [1, 7] was 0.357 ± 0.15 mg, the “Percent Inhibition (mean ± SEM)” value [1, 7] was 86.65 ± 4.81% and the “dose dependence of inhibition in hair growth” value ([1]; topical application, dosage levels 0.25% to 5.00%) was “increased dosage level of the inhibitor provided an increased inhibition in hair growth”. The “Hair Mass Treated (mg mean ± SEM)” value [1, 8] was 0.357 ± 0.15 mg, the “Percent Inhibition (mean ± SEM)” value [1, 8] was 86.65 ± 4.81% and the “L-Cystathionine, Percent of Untreated Control (100%)” value (“L-Cystathionine, Percent … (100%)” below) ([2]; dose 0.125%, pH 4.5) was 49%. For the same molecule, the “S-Adenosyl Homocysteine, Percent of Untreated Control (100%)” value (shortened to “S-Adenosyl Homocysteine, Percent … (100%)”) ([2]; dose 0.125%, pH 4.5) was 144%, the “L-Cystathionine, Percent … (100%)” value ([2]; dose 0.250%, pH 4.5) was 29% and the “S-Adenosyl Homocysteine, Percent … (100%)” value ([2]; dose 0.250%, pH 4.5) was 149%. The “L-Cystathionine, Percent … (100%)” value ([2]; dose 0.500%, pH 4.5) was 12% and the “S-Adenosyl Homocysteine, Percent … (100%)” value ([2]; dose 0.500%, pH 4.5) was 218%.
In the case of C#CCC(N)C(=O)O (racemic) [DL-Propargylglycine, D,L-2-amino-4-pentynoic acid], the “Hair Mass Treated (mg mean ± SEM)” value [1, 9] is reported as 1.401 ± 0.14 mg and the “Percent Inhibition (mean ± SEM)” value [1, 9] is reported as 33.12 ± 5.59%.
In the case of CC(=O)OC[C@H]1O[C@@H](n2ncc(=O)[nH]c2=O)[C@H](OC(C)=O)[C@@H]1OC(C)=O [6-Azauridine-2',3',5'-triacetate], the “Hair Mass Treated (mg mean ± SEM)” value [1, 10] is reported as 0.455 ± 0.05 mg, the “Percent Inhibition (mean ± SEM)” value [1, 10] is reported as 80.25 ± 2.37% and the “L-Cystathionine, Percent … (100%)” value ([2]; dose 20%, pH 7.0) is reported as 60%.
For N[C@@H](COC(=O)CCC(=O)O)C(=O)O [O-Succinyl serine], the “Hair Mass Treated (mg mean ± SEM)” value [1, 11] was 0.710 ± 0.07 mg, the “Percent Inhibition (mean ± SEM)” value [1, 11] was 63.58 ± 4.69% and the “Homocysteine, Percent of Untreated Control (100%)” value ([2]; dose 15%, pH 8.0) was 228%. The “L-Cystathionine, Percent … (100%)” value ([2]; dose 15%, pH 8.0) was 66%.
For Nc1ncnc2c1ncn2[C@@H]1O[C@H](CO)[C@@H](O)[C@H]1O [Adenosine], the “Hair Mass Treated (mg mean ± SEM)” value [1, 12] was 1.140 ± 0.12 mg and the “Percent Inhibition (mean ± SEM)” value [1, 12] was 55.28 ± 4.00%.
In the case of NC(C(=O)O)C(F)(F)F (racemic) [3,3,3,-Trifluoro-DL-alanine], the “Hair Mass Treated (mg mean ± SEM)” value [1, 13] is reported as 1.110 ± 0.13 mg and the “Percent Inhibition (mean ± SEM)” value [1, 13] is reported as 32.36 ± 8.01%.
